Patent US20240424118A1, “VECTORS TARGETING BETA-D-N-ACETYLGLUCOSAMINIDASE” (CENTRE NATIONAL DE LA RECHERCHE SCIENTIFIQUE, priority 2021, published 2024)

Assays:
[1] = tested on: MDA-MB-231 orthotopic tumors; assay: Therapeutic efficacy on MDA-MB-231 orthotopic triple negative breast tumor model in mice; format: in vivo
Procedure: The vectors were administered on days 21, 35 and 49. Each point corresponds to the average of the tumor volumes±SEM. The curves with the triangles correspond to the vehicle and the curves with the squares correspond to the vector 80.
The therapeutic efficacy of vector 80 was evaluated in mice, on a triple negative breast tumor model of the MDA-MB-231 type (FIG. 2). Compound 80 was administered three times, with a period of 14 days, intravenously in the caudal vein, at a dose of 4 mg·kg^−1.

[2] = tested on: KB tumor line; assay: Antiproliferative activity (cell viability) on KB tumor line, with or without β-N-acetylglucosaminidase; format: cell-based, human; details: KB cells, 72 hours of incubation
Procedure: (§1) The curves with the circles correspond to MMAE, the curves with the squares correspond to vector 80 and the curves with the triangles correspond to vector 80 in the presence of GlcNase.
(§2) The antiproliferative activity of vector 80 was evaluated on human KB and MDA-MB-231 tumor lines and compared to that of MMAE. To do this, compound 80 was placed in the culture medium in the absence or presence of β-N-acetylglucosaminidase and cell viability was measured after 72 hours of incubation (FIG. 1).

[3] = tested on: MDA-MB-231 tumor line; assay: Antiproliferative activity (cell viability) on MDA-MB-231 tumor line, with or without β-N-acetylglucosaminidase; format: cell-based, human; details: MDA-MB-231 cells, 72 hours of incubation
Procedure: as §1, §2

Structure (SMILES): CC[C@H](C)[C@@H]([C@@H](CC(=O)N1CCC[C@H]1[C@H](OC)[C@@H](C)C(=O)N[C@H](C)[C@@H](O)c1ccccc1)OC)N(C)C(=O)[C@@H](NC(=O)[C@H](C(C)C)N(C)C(=O)OC(Cc1cn(CCOCCOCCOCCOCCOCCOCCOCCOCCOCCOCCNC(=O)CCCCCN2C(=O)C=CC2=O)nn1)c1ccc(O[C@@H]2OC(CO)[C@@H](O)[C@H](O)C2NC(C)=O)c([N+](=O)[O-])c1)C(C)C (stereo partly shown) [vector 80]
- therapeutic activity relative to the control group ([1]; 4 mg·kg^−1 intravenously, days 21, 35 and 49): significant therapeutic activity
- mice with total and lasting regression of the tumor ([1]; end of the experiment (day 63), 4 mg·kg^−1 intravenously): 3/6
- mice that no longer had detectable tumors ([1]; from day 35, after the first injection, 4 mg·kg^−1 intravenously): 4/6
- reduction in the initial tumor size (initial response to treatment) ([1]; initial response, before regrowth at day 42, 4 mg·kg^−1 intravenously): 90%
- mortality (tolerance) ([1]; until end of protocol (day 63), 4 mg·kg^−1 intravenously, three administrations): no mortality
- cytotoxicity in the absence versus presence of β-N-acetylglucosaminidase [2]: identical cytotoxicity
- cytotoxicity in the absence versus presence of β-N-acetylglucosaminidase [3]: identical cytotoxicity
